Values of other authors, collected in patent US4610817A, “N-acyl derivatives of peptides, their preparation and their use in the treatment of disorders, and agents for this purpose” (BASF Aktiengesellschaft, priority 1983, dated 1986).
Where a SMILES comes first, the peptide text is derived from it.

Tested on: tremor, rigor and akinesia in Parkinson patients
Conditions: alone or in combination with L-dopa

Structure (SMILES): CC(C)C[C@H](NC(=O)[C@@H]1CCCN1)C(=O)NCC(N)=O [MIF, L-Pro-L-Leu-Gly-NH2] (H-Pro-Leu-Gly-NH2)
- clinical effect on Parkinson symptoms: advantageous effect on tremor, rigor and akinesia
